Calls of active or inactive are those of the source. The calls are words filed in the database; no cut-off is given here.
Legend:
[1] = tested on: Human immunodeficiency virus 1; test: Antiviral activity against HIV-1 assessed as reduction in viral replication; type: functional, organism-based
[2] = tested on: Human immunodeficiency virus 1; test: Antiviral activity against HIV-1 assessed as reduction in viral replication at 0.1 uM; type: functional; design: scale not given: the % may be the effect or the level left
Haemonchus contortus [3] = test: Anti-helmintic activity against third-stage Haemonchus contortus larvae assessed as reduction in development of xL3 stage larvae to L4 stage after 7 days; type: functional, organism-based; settings: 168 h
Haemonchus contortus [4] = test: Anti-helmintic activity against fourth stage L4 Haemonchus contortus larvae assessed as induction of eviscerated phenotype measured on day 7 by light microscopic method; type: functional, organism-based
Haemonchus contortus [5] = test: Anti-helmintic activity against fourth stage L4 Haemonchus contortus larvae assessed as induction of changes in internal structure measured on day 7 by light microscopic method; type: functional, organism-based
Haemonchus contortus [6] = test: Anti-helmintic activity against third-stage Haemonchus contortus larvae assessed as reduction in larval motility after 72 hrs; type: functional, organism-based
Haemonchus contortus [7] = test: Anti-helmintic activity against third-stage Haemonchus contortus larvae assessed as induction of eviscerated phenotype at 100 uM measured on day 7 by light microscopic analysis relative to control; type: functional
Haemonchus contortus [8] = test: Anti-helmintic activity against third-stage Haemonchus contortus larvae assessed as reduction in development of xL3 stage larvae to L4 stage at low concentration after 7 days; type: functional, organism-based
Haemonchus contortus [9] = test: Anti-helmintic activity against third-stage Haemonchus contortus larvae assessed as reduction in development of xL3 stage larvae to L4 stage at 100 uM after 7 days; type: functional, organism-based
[10] = tested on: Human immunodeficiency virus 1; test: Antiviral activity against HIV-1 NL4.3 infected in CEM-GXR T cells assessed as reduction in viral replication after 72 hrs by flow cytometry; type: functional, organism-based; settings: Human immunodeficiency virus 1, NL4.3, CEM-GXR

Row | Compound | EC50 [1] | further results
1 | CCCC(=O)c1c(O)c(CNCCS(=O)(=O)O)c(O)c2c1C(=O)c1cc(OC)cc(O)c1C2=O | > 100 µM | –
2 | CC(C)(C)NC(=O)[C@@H]1CN(Cc2cccnc2)CCN1C[C@@H](O)C[C@@H](Cc1ccccc1)C(=O)N[C@H]1c2ccccc2C[C@H]1O.O [INDINAVIR] | – | Activity [2]: 72%
3 | CCCC(=O)c1c(O)cc(O)c2c1C(=O)c1cc(OC)cc(O)c1C2=O | > 100 µM | –
4 | COc1cc(O)c2c(c1)C(=O)c1c(C(C)=O)c(O)c(CNCCS(=O)(=O)O)c(O)c1C2=O | > 100 µM | –
5 | CCCc1cc(=O)c2c(OC)c(OC)c3cc(OC)cc(OC)c3c2o1 | > 100 µM | IC50 (Haemonchus contortus [3]): 31 µM; Activity (Haemonchus contortus [4]): inactive; Activity (Haemonchus contortus [5]): Active; IC50 (Haemonchus contortus [6]): 30 µM; Activity (Haemonchus contortus [7]): 51%; Activity (Haemonchus contortus [8]): inactive; Activity (Haemonchus contortus [9]): Active
6 | CCCC(=O)c1c(O)cc(O)c2c1C(=O)c1cc(O)cc(O)c1C2=O | > 100 µM | Activity (Haemonchus contortus [9]): Active
7 | COc1cc(O)c2c(c1)C(=O)c1c(C(C)=O)c(O)cc(O)c1C2=O | > 100 µM | –
8 | CCCc1cc(=O)c2c(O)c(OC)c3cc(O)cc(OC)c3c2o1 | > 100 µM | –
9 | O=C1c2cc(O)cc(O)c2C(=O)c2c(O)cc(O)cc21 | > 100 µM | –
10 | COc1cc(OC)c2c(c1)C(=O)c1c(C(C)=O)c(O)cc(O)c1C2=O | > 100 µM | –
11 | CC(=O)c1c(O)cc(O)c2c1C(=O)c1cc(O)cc(O)c1C2=O | > 100 µM | –
12 | CCCC(=O)c1c(O)cc(O)c2c1C(=O)c1cc(OC)cc(OC)c1C2=O | > 100 µM | –
13 | CCCC(=O)c1c(O)cc(O)c2c1C(=O)c1cc(OC)c(OC)c(O)c1C2=O | > 100 µM | –
14 | CCCc1cc(=O)c2c(O)cc3cc(O)cc(OC)c3c2o1 [COMAPARVIN] | 5.7 µM | EC50 [10]: 7.5 µM
